# Tested on: yeast genes (level of expressed mRNA)
# Assay: DNA chip analysis of expressed mRNA of yeast genes after 2 h culture with a toxic chemical substance
# Type: cell-based, Saccharomyces cerevisiae S288C
# Procedure: Yeast (Saccharomyces cerevtisiae S288C (α SUC2mal mel gap2 CUP1)) were cultured at 25° C. on YPD medium (yeast extract 1%, polypepton 2%, glucose 2%). One of toxic chemical substances was added to the cell at logarithmic growth phase, and the cell was further cultured for two hours. Cell was cultured without any chemical substance in the same condition, and was used as control. Concentrations of the chemical substances were defined to inhibit the growth of the yeast but not lead to death.
# After the completion of cultivation, the culture was centrifuged to collect the cells. To the cells, sodium acetate buffer (50 mM sodium acetate, 10 mM EDTA, 1% SDS) was added, and the mixture was shaken at 65° C. for five minutes, followed by returning to room temperature, and obtaining the supernatant, which procedure was repeated two times. To the supernatant, ½ amount of a solution of phenol/chloroform was added, and the mixture was centrifuged to give a supernatant, which was added with an equal amount of chloroform, and the mixture was centrifuged to give a supernatant. To the supernatant, an equal amount of isopropanol containing 0.3 M sodium acetate was added, and the mixture was allowed to stand at room temperature for 30 minutes, after which the mixture was centrifuged to give a sediment of the whole RNAs. Seventy % ethanol was added to the sediment, and the mixture was again centrifuged to give a sediment, which was then dried and dissolved in water. mRNA was isolated from the whole RNAs as followings. In view of the fact that a poly A chain is attached to the 3′ terminus of mRNA, a polynucleotide having a poly T structure which was immobilized on the surface of latex beads was used to trap the mRNA, and then the mRNA was washed and eluted with spine column (Oligotex-dT30<Super>mRNA Purification Kit, Takara). Reverse transcription of the mRNA was conducted with a reverse transcriptase (Super Script II Reverse Transcriptase; catalogue No. 18064-014, GibcoBRL) using fluorescence-labeled nucleotides to give cDNAs that were introduced with Cy3-dUTP or Cy5-dUTP during the reverse transcription.
# The labeled cDNAs were dissolved in TE buffer (10 mM Tris-HCl/1 mM EDTA, pH8.0), and the solution was dropped on the DNA chip containing the whole genes of yeast (DNA Chip Research Inc. Japan) so that the cDNAs were hybridized on the DNA chip at 65° C. for over 12 hours. The fluoresces intensity of the DNA chip was read with a scanner, and the ratio relative to the fluorescence intensity resulting from the absence of chemical substance was estimated as the following, which is shown in Tables 1 to 9: [formula]
# In the Tables, “Intensity” indicated in the rightmost column is a value of the level of expressed mRNA of each gene in control cells as divided by the average level of the expressions of the whole genes.
substance,measurement,setting,value
manganese ethylenebis(dithiocarbamate) [(8)],The level of expressed mRNA in the presence of chemical substance/,"yeast gene YNL074C, ratio to control without chemical substance, 2 h culture",0.6
same,The level of expressed mRNA in the presence of chemical substance/,"yeast gene YNL092W, ratio to control without chemical substance, 2 h culture",0.9
same,The level of expressed mRNA in the presence of chemical substance/The level of expressed mRNA in the absence of chemical substance,yeast gene YNL093W,0.8
same,The level of expressed mRNA in the presence of chemical substance/,"yeast gene YNL115C, ratio to control without chemical substance, 2 h culture",0.8
same,The level of expressed mRNA in the presence of chemical substance/,"yeast gene YNL156C, ratio to control without chemical substance, 2 h culture",1.2
same,The level of expressed mRNA in the presence of chemical substance/,"yeast gene YNL234W, ratio to control without chemical substance, 2 h culture",1.3
same,The level of expressed mRNA in the presence of chemical substance/,"yeast gene YNL281W, ratio to control without chemical",1.2
same,The level of expressed mRNA in the presence of chemical substance/,"yeast gene YNL305C, ratio to control without chemical",0.7
same,The level of expressed mRNA in the presence of chemical substance/The level of expressed mRNA in the absence of chemical substance,yeast gene YNL333W,2.1
same,The level of expressed mRNA in the presence of chemical substance/The level of expressed mRNA in the absence of chemical substance,yeast gene YNR010W,1.1
same,The level of expressed mRNA in the presence of chemical substance/,"yeast gene YNR068C, ratio to control without chemical",1.1
same,The level of expressed mRNA in the presence of chemical substance/The level of expressed mRNA in the absence of chemical substance,yeast gene YNR069C,1.4
same,The level of expressed mRNA in the presence of chemical substance/in the absence of chemical substance,yeast gene YNR072W,0.9
same,The level of expressed mRNA in the presence of chemical substance/The level of expressed mRNA in the absence of chemical substance,yeast gene YOL013C,1.0
same,The level of expressed mRNA in the presence of chemical substance/,"yeast gene YOL032W, ratio to control without chemical",1.5
same,The level of expressed mRNA in the presence of chemical substance/,"yeast gene YOL036W, ratio to control without chemical",0.8
same,The level of expressed mRNA in the presence of chemical substance/,"yeast gene YOL047C, ratio to control without chemical",1.1
same,The level of expressed mRNA in the presence of chemical substance/,"yeast gene YOL071W, ratio to control without chemical",1.6
same,The level of expressed mRNA in the presence of chemical substance/,"yeast gene YOL082W, ratio to control without chemical",1.1
same,The level of expressed mRNA in the presence of chemical substance/,"yeast gene YOL083W, ratio to control without chemical",1.3
same,The level of expressed mRNA in the presence of chemical substance/in the absence of chemical substance,yeast gene YOL096C,1.0
same,The level of expressed mRNA in the presence of chemical substance/,"yeast gene YOL117W, ratio to control without chemical",1.1
same,The level of expressed mRNA in the presence of chemical substance/,"yeast gene YOL131W, ratio to control without chemical",1.1
same,The level of expressed mRNA in the presence of chemical substance/,"yeast gene YOL150C, ratio to control without chemical substance, 2 h culture",3.7
same,The level of expressed mRNA in the presence of chemical substance/,"yeast gene YOL162W, ratio to control without chemical",1.6
same,The level of expressed mRNA in the presence of chemical substance/The level of expressed mRNA in the absence of chemical substance,yeast gene YOL164W,1.0
same,The level of expressed mRNA in the presence of chemical substance/,"yeast gene YOR019W, ratio to control without chemical",1.1
same,The level of expressed mRNA in the presence of chemical substance/The level of expressed mRNA in the absence of chemical substance,yeast gene YOR036W,1.4
same,The level of expressed mRNA in the presence of chemical substance/The level of expressed mRNA in the absence of chemical substance,yeast gene YOR117W,1.0
same,The level of expressed mRNA in the presence of chemical substance/The level of expressed mRNA in the absence of chemical substance,yeast gene YOR124C,1.3
same,The level of expressed mRNA in the presence of chemical substance/The level of expressed mRNA in the absence of chemical substance,yeast gene YOR132W,1.2
same,The level of expressed mRNA in the presence of chemical substance/The level of expressed mRNA in the absence of chemical substance,yeast gene YOR157C,1.2
same,The level of expressed mRNA in the presence of chemical substance/in the absence of chemical substance,yeast gene YOR180C,0.9
same,The level of expressed mRNA in the presence of chemical substance/The level of expressed mRNA in the absence of chemical substance,yeast gene YOR181W,0.7
same,The level of expressed mRNA in the presence of chemical substance/The level of expressed mRNA in the absence of chemical substance,yeast gene YOR185C,1.4
same,The level of expressed mRNA in the presence of chemical substance/,"yeast gene YOR197W, ratio to control without chemical",0.9
same,The level of expressed mRNA in the presence of chemical substance/The level of expressed mRNA in the absence of chemical substance,yeast gene YOR198C,1.3
same,The level of expressed mRNA in the presence of chemical substance/The level of expressed mRNA in the absence of chemical substance,yeast gene YOR259C,1.1
same,The level of expressed mRNA in the presence of chemical substance/The level of expressed mRNA in the absence of chemical substance,yeast gene YOR261C,2.6
same,The level of expressed mRNA in the presence of chemical substance/The level of expressed mRNA in the absence of chemical substance,yeast gene YOR288C,1.9
same,The level of expressed mRNA in the presence of chemical substance/The level of expressed mRNA in the absence of chemical substance,yeast gene YOR355W,0.8
same,The level of expressed mRNA in the presence of chemical substance/in the absence of chemical substance,yeast gene YOR363C,1.1
same,The level of expressed mRNA in the presence of chemical substance/The level of expressed mRNA in the absence of chemical substance,yeast gene YOR383C,1.0
same,The level of expressed mRNA in the presence of chemical substance/,"yeast gene YPL087W, ratio to control without chemical",1.0
same,The level of expressed mRNA in the presence of chemical substance/The level of expressed mRNA in the absence of chemical substance,yeast gene YPL089C,0.8
same,The level of expressed mRNA in the presence of chemical substance/The level of expressed mRNA in the absence of chemical substance,yeast gene YPL109C,1.1
same,The level of expressed mRNA in the presence of chemical substance/The level of expressed mRNA in the absence of chemical substance,yeast gene YPL149W,1.1
same,The level of expressed mRNA in the presence of chemical substance/The level of expressed mRNA in the absence of chemical substance,yeast gene YPL154C,0.8
same,The level of expressed mRNA in the presence of chemical substance/,"yeast gene YPL196W, ratio to control without chemical",1.2
same,The level of expressed mRNA in the presence of chemical substance/,"yeast gene YPL206C, ratio to control without chemical",1.0
same,The level of expressed mRNA in the presence of chemical substance/,"yeast gene YPL222W, ratio to control without chemical",0.7
same,The level of expressed mRNA in the presence of chemical substance/,"yeast gene YPR023C, ratio to control without chemical",0.9
same,The level of expressed mRNA in the presence of chemical substance/The level of expressed mRNA in the absence of chemical substance,yeast gene YPR103W,1.0
same,The level of expressed mRNA in the presence of chemical substance/The level of expressed mRNA in the absence of chemical substance,yeast gene YPR108W,1.6
same,The level of expressed mRNA in the presence of chemical substance/,"yeast gene YPR151C, ratio to control without chemical",1.4
same,The level of expressed mRNA in the presence of chemical substance/in the absence of chemical substance,yeast gene YPR184W,0.7

# Source: patent US20050112573A1, “Method of detecting toxic substance” (priority 2001, published 2005)
